Experimental data: US11390828B2, “Catnip cultivar ‘CR9’” (RUTGERS, THE STATE UNIVERSITY OF NEW JERSEY, priority 2016, dated 2022)

Key:
Aedes aegypti = assay: Dose dependent one-choice mosquito landing rate inhibition assay; assay type: in vivo
Description: (§1) Nepeta cataria plants were evaluated as insect repellents against Aedes aegypti and Anopholes gambiae mosquitoes in a landing rate inhibition assay against DEET as shown in FIGS. 4 and 5. A dose dependent curve was generated for all treatments and a time course analysis was performed with a crude essential oil sample. […] Between two and four hours the ability to generate 95% repellency diminished.
Mosquito eggs were reared in water at 27° C. with 80% humidity and the mosquitoes were transferred during the rearing process with an eye dropper. The A. aegypti eggs were placed in a container holding water and once hatched and formed into larvae, they were separated from the unhatched eggs and placed into fresh water. General fish food tablets were used as the energy source for the maturing mosquitoes. As the mosquitoes began to form into pupae, they were separated from the smaller less developed larvae and placed into fresh water. This container was then placed into a Bug Dorm Cage where the pupae were allowed to mature into adults. […]
Repellency was determined by a one-choice landing assay that uses the amount of mosquito landings to calculate the overall effectiveness of the candidate repellent. […] Time lapse photography recorded one image every five seconds. […]

Anopholes gambiae = assay: Dose dependent mosquito landing rate inhibition assay; assay type: in vivo; conditions: treatment at 1.00%, FIG. 5
Description: as §1
Repellency was determined by a one-choice landing assay that uses the amount of mosquito landings to calculate the overall effectiveness of the candidate repellent. Twenty, one day starved adult female Aedes aegypti mosquitoes were aspirated into a Bug Dorm Cage. Testing was performed between 10:00 am and 4:00 pm PST during A. aegypti's host seeking hours. A HotHands® heat pack was used as the heat source to attract the mosquitoes in the upper region of the back panel. Treatments were applied to a Whatman® filter paper and used to wrap the heat source. A control of just acetone was applied to the filter papers before and after each treatment to ensure reproducibility in mosquito behavior. […] Time lapse photography recorded one image every five seconds. A custom was used to count the mosquitoes automatically through the open source image processing software ImageJ.

[1] = test system: two species of mosquitoes; conditions: cited from earlier work
house and stable flies = conditions: in vivo; cited from earlier work
[2] = test system: house dust mite species, poultry mites; conditions: in vivo; cited from earlier work
harvester ants = conditions: body contact; cited from earlier work

CCN(CC)C(=O)c1cccc(C)c1 [DEET]
decrease in landings of mosquitoes (repellency) (Aedes aegypti; treatment at 1.00% on filter paper, FIG. 4): > 95% | decrease in landings of mosquitoes (repellency) (Anopholes gambiae): > 95%

CC1COC(=O)C2C(C)CCC12 (centres unmarked) [dihydronepetalactone 2]
duration of complete protection ([1]; human subjects): up to five | repelling efficacy compared with DEET ([1]; two species of mosquitoes): as effective at repelling two species of mosquitoes as DEET

Z, E nepetalactone
repellency percentage compared between treatments (Aedes aegypti; treatment at 0.10%): highest repellency percentage | repellency (house and stable flies): significant repellency | repellency [2]: efficient in repelling | speed of mortality compared with the other nepetalactones in catnip (harvester ants): mortality was achieved faster
